Results published in ChEMBL document CHEMBL1135491, “Novel 2-oxoamide inhibitors of human group IVA phospholipase A(2)” (J Med Chem, 2002).
Active and inactive are the calls of the source. The rule behind the calls is not given here.

Key:
[1] = biological target: T1, Cytosolic phospholipase A2 (Homo sapiens) (UniProt P47712); assay: Inhibitory activity against human Group IVA Phospholipase A2 (GIVA PLA2)
T1 sequence (whole entry): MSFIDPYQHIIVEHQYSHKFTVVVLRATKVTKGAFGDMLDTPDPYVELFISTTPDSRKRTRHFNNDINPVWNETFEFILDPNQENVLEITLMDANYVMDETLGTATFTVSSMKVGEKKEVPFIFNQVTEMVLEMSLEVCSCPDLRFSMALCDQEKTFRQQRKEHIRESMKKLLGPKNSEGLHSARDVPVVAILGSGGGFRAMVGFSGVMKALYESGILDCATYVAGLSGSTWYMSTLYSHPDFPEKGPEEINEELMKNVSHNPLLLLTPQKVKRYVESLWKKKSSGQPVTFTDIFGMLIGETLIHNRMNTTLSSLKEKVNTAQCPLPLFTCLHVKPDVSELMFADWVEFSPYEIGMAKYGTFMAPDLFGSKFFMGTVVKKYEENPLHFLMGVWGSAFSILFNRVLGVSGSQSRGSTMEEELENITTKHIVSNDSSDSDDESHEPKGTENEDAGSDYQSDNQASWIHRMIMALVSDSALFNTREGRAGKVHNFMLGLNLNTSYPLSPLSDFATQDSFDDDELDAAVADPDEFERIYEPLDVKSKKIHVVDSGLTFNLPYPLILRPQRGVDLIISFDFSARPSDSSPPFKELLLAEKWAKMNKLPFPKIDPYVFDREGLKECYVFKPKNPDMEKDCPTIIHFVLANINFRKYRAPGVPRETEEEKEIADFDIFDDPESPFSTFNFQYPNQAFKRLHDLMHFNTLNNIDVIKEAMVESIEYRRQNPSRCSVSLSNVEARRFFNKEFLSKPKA

[2] = biological target: T1, Cytosolic phospholipase A2 (Homo sapiens); assay: Inhibitory activity against human Group IVA Phospholipase A2 (GIVA PLA2); Inactive
[3] = biological target: T1, Cytosolic phospholipase A2 (Homo sapiens); assay: Inhibitory activity against human Group IVA Phospholipase A2 (GIVA PLA2), at 0.02 mole fraction

XI50 [1] | IA [2] | SMILES | also measured
– | inactive | CCCCCCCC/C=C\CCCCCCCCNC(=O)C(=O)CCCCCCCCCCCCCC | –
– | inactive | CCCCCCCC/C=C\CCCCCCCCNC(=O)C(=O)CCCCCC | –

Continued, compound first:

SMILES | XI50 [1] | IA [2] | also measured
CCCCCCCCCCC(=O)C(=O)N[C@H](CCCC)CCC(=O)O | 0.068 | – | –
CCCCCCC(=O)C(=O)NCCCC(=O)O | – | inactive | –
CCCCCCCCCCC(=O)C(=O)N[C@@H](CCCC)CCC(=O)O | 0.009 | – | –
CCCCCCCCCCCCCCC(=O)C(=O)NCCCCCC | – | – | inhibition [3]: 22%
CCCCCCCCCCCCCC(=O)C(N)=O | – | inactive | –
CCCCCCCCCCCCCCC(=O)C(=O)NCCCC(=O)O | 0.017 | – | –
